Source: ChEMBL document CHEMBL1201862, “PubChem BioAssay data set” (2004)
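In this assay, cells in 96-well plates receive the compound at five concentrations for 48 hours. Endpoints are linearly interpolated between the surrounding concentrations. The concentration for 50% growth inhibition is given as GI50.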 The source made the active and inactive calls. Cut-off read from the data, not from the text of the source: active = GI50 up to about 1.1 µM and inactive = higher.

Assays:
Assay in all cases: inhibition of tumour cell growth, NCI panel, 48 h
CAKI-1 = test system: CAKI-1
COLO 205 = test system: COLO 205
HOP-62 = test system: HOP-62
HT-29 = test system: HT-29
Malme-3M = test system: Malme-3M
NCI-H23 = test system: NCI-H23
NCI-H522 = test system: NCI-H522
OVCAR-4 = test system: OVCAR-4
RPMI-8226 = test system: RPMI-8226
SF-295 = test system: SF-295
SK-MEL-28 = test system: SK-MEL-28
SNB-19 = test system: SNB-19
SNB-75 = test system: SNB-75
TK-10 = test system: TK-10
UACC-257 = test system: UACC-257
UACC-62 = test system: UACC-62
HOP-92 = test system: HOP-92

Measured: GI50

O=C1[C@H](Cl)[C@H]2c3cc4ccccc4nc3Oc3ccccc3N12
inactive: CAKI-1 38.7 µM | COLO 205 54.8 µM | HOP-62 35.4 µM | HT-29 69.8 µM | Malme-3M 49.4 µM | NCI-H23 35.1 µM | NCI-H522 24.3 µM | OVCAR-4 45.5 µM | RPMI-8226 22.6 µM | SF-295 21.8 µM | SK-MEL-28 33 µM | SNB-19 46.8 µM | SNB-75 1.4 µM | TK-10 > 100 µM | UACC-257 50.4 µM | UACC-62 18.3 µM

COC(=O)[C@@]12C(=O)C=CC(=O)C1C1C(=CC2C)OC2OC3(CCCCC3)OC21 (stereo partly specified)
inactive: CAKI-1 18.2 µM | COLO 205 14.2 µM | HOP-62 19.9 µM | HT-29 21.6 µM | Malme-3M 20.2 µM | NCI-H23 19.4 µM | NCI-H522 9.71 µM | OVCAR-4 16.7 µM | RPMI-8226 4.89 µM | SF-295 18.9 µM | SK-MEL-28 16.9 µM | SNB-19 17.7 µM | SNB-75 18.9 µM | TK-10 17.3 µM | UACC-257 17.1 µM | UACC-62 15.2 µM

Cc1ccc(NC(=O)C2C(=O)N(c3ccc(C)c(C)c3)C(=O)C2N=N)cc1C (stereo unspecified)
inactive: CAKI-1 > 100 µM | COLO 205 > 100 µM | HOP-62 > 100 µM | HOP-92 47.9 µM | HT-29 > 100 µM | Malme-3M > 100 µM | NCI-H23 74.5 µM | NCI-H522 38.1 µM | OVCAR-4 > 100 µM | SF-295 65 µM | SK-MEL-28 > 100 µM | SNB-19 > 100 µM | SNB-75 > 100 µM | TK-10 > 100 µM | UACC-257 > 100 µM | UACC-62 > 100 µM

Cc1cccc(C)c1NC(=O)CCCC(=O)C(C#N)c1ccccc1 (stereo unspecified)
inactive: CAKI-1 > 100 µM | COLO 205 > 100 µM | HOP-62 > 10 µM | HOP-92 > 100 µM | HT-29 > 10 µM | NCI-H23 > 100 µM | NCI-H522 > 100 µM | OVCAR-4 > 100 µM | RPMI-8226 > 100 µM | SF-295 > 10 µM | SK-MEL-28 > 100 µM | SNB-19 > 10 µM | SNB-75 > 100 µM | UACC-257 > 100 µM | UACC-62 > 10 µM

Cc1c(C(=O)/C=C/c2ccccc2O)c(=O)n(-c2ccccc2)n1C
inactive: CAKI-1 21.8 µM | COLO 205 26.4 µM | HOP-92 28.3 µM | HT-29 35.5 µM | Malme-3M 19.4 µM | NCI-H23 > 10 µM | NCI-H522 18.1 µM | SF-295 14.6 µM | SK-MEL-28 25.1 µM | SNB-19 43.8 µM | SNB-75 50.6 µM | TK-10 90.6 µM | UACC-257 22.4 µM | UACC-62 29 µM

O=C(O)c1c(-c2cccc3ccccc23)sc(-c2cccc3ccccc23)c1C(=O)O
inactive: COLO 205 > 100 µM | HOP-92 > 100 µM | HT-29 > 100 µM | Malme-3M > 100 µM | NCI-H23 > 100 µM | NCI-H522 74.8 µM | RPMI-8226 58.1 µM | SF-295 > 100 µM | SK-MEL-28 > 100 µM | SNB-19 > 100 µM | SNB-75 > 100 µM | TK-10 > 100 µM | UACC-257 > 100 µM | UACC-62 46.1 µM

CCN(CC)C(=O)C/C(C)=N/NC(=O)c1ccncc1
inactive: COLO 205 > 100 µM | HOP-62 > 100 µM | HOP-92 > 100 µM | HT-29 > 100 µM | Malme-3M > 100 µM | NCI-H23 > 100 µM | NCI-H522 > 100 µM | RPMI-8226 > 100 µM | SF-295 > 100 µM | SK-MEL-28 > 100 µM | SNB-75 > 100 µM | TK-10 > 100 µM | UACC-257 > 100 µM | UACC-62 > 100 µM

O=C1CC(c2ccccc2)NCN1 (stereo unspecified)
inactive: CAKI-1 > 100 µM | COLO 205 > 100 µM | HOP-62 > 100 µM | HT-29 > 100 µM | Malme-3M > 100 µM | NCI-H23 > 100 µM | NCI-H522 > 100 µM | OVCAR-4 > 100 µM | RPMI-8226 > 100 µM | SF-295 > 100 µM | SK-MEL-28 > 100 µM | SNB-19 > 100 µM | SNB-75 > 100 µM | TK-10 > 100 µM | UACC-257 > 100 µM | UACC-62 > 100 µM

COc1c(O)c2c3c(cc(C)cc3c1C(C)C)OC2
inactive: COLO 205 > 100 µM | HOP-92 > 100 µM | HT-29 > 100 µM | Malme-3M > 100 µM | NCI-H23 > 100 µM | NCI-H522 > 100 µM | OVCAR-4 > 100 µM | RPMI-8226 > 100 µM | SF-295 > 100 µM | SK-MEL-28 > 100 µM | SNB-19 > 100 µM | SNB-75 > 100 µM | TK-10 > 100 µM | UACC-257 > 100 µM | UACC-62 > 100 µM
